The values that follow are results of earlier work, collected in patent US10398653B2, “Solid preparations containing tofogliflozin and process of producing the same” (CHUGAI SEIYAKU KABUSHIKI KAISHA, priority 2013, dated 2019).

The data set has as its target T1, SGLT2 (Homo sapiens, UniProt P31639).
T1 sequence (P31639 1-672): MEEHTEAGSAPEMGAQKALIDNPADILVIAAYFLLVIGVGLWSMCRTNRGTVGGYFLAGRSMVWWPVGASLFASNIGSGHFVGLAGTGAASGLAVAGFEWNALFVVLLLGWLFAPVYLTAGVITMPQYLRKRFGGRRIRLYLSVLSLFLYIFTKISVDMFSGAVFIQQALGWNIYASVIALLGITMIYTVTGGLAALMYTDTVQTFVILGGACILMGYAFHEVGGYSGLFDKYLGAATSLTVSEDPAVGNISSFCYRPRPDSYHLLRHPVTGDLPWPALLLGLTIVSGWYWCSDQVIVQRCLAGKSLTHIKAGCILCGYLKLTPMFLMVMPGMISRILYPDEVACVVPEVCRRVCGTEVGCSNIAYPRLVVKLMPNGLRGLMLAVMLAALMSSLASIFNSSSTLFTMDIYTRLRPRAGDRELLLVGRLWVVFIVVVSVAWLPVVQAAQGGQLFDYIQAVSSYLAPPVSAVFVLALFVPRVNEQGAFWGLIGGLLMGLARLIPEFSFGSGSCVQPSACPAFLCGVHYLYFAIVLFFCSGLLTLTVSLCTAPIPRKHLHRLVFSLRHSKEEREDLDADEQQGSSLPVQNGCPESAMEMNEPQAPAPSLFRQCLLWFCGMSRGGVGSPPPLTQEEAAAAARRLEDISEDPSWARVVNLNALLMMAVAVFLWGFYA
Conditions: as stated in Patent Document 1.

Structures are written as SMILES.

For the molecule `CCc1ccc(Cc2ccc3c(c2)[C@]2(OC3)O[C@H](CO)[C@@H](O)[C@H](O)[C@H]2O)cc1` [tofogliflozin, 1,1-Anhydro-1-C-[5-(4-ethylphenyl)methyl-2-(hydroxymethyl)phenyl]-β-D-glucopyranose], the “Inhibitory activity against SGLT2” value was “excellent inhibitory activity”.
